# Source: patent US9302999B2, “Substituted triazoles as herbicides” (E. I. DU PONT DE NEMOURS AND COMPANY, priority 2012, dated 2016)
# Columns and labels:
# Format in all cases: in vivo
# [1] = test system: velvetleaf (Abutilon theophrasti); assay: Test A pre-/postemergence: velvetleaf; settings: for Velvetleaf plant response rating: Postemergence; for Plant response rating, Velvetleaf: Preemergence
# Outline: (§1)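 Injury was scored visually on a 0 (no effect) to 100 (complete control) scale versus untreated controls roughly ten days after treatment in the greenhouse. Compounds, formulated in surfactant-containing non-phytotoxic solvent, went on as soil-directed preemergence spray or postemergence to one- to two-leaf plants 2–10 cm tall.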
# [2] = test system: wheat (Triticum aestivum); assay: Test A pre-/postemergence: wheat; settings: for Wheat plant response rating: Postemergence; for Plant response rating, Wheat: Preemergence
# Outline: as §1
# rice (Oryza sativa) = assay: Test C flooded paddy test: rice; settings: scale 0 to 100 (0 no effect, 100 complete control)
# Outline: (§2)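 Rating: visual, 0–100 (100 = complete control), versus untreated controls after 13 to 15 greenhouse days. Treatment went into paddy water held at 3 cm over the soil, on plants grown to two leaves.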
# [3] = test system: barnyardgrass (Echinochloa crus-galli); assay: Test A pre-/postemergence: barnyardgrass; settings: for Barnyardgrass plant response rating: Postemergence; for Plant response rating, Barnyardgrass: Preemergence
# Outline: as §1
# [4] = test system: foxtail, giant (giant foxtail, Setaria faberii); assay: Test A pre-/postemergence: foxtail, giant; settings: for Foxtail, Giant plant response rating: Postemergence; for Plant response rating, Foxtail, Giant: Preemergence
# Outline: as §1
# [5] = test system: morningglory (Ipomoea spp.); assay: Test A pre-/postemergence: morningglory; settings: for Morningglory plant response rating: Postemergence; for Plant response rating, Morningglory: Preemergence
# Outline: as §1
# corn (Zea mays) = assay: Test A pre-/postemergence: corn; settings: for Corn plant response rating: Postemergence; for Plant response rating, Corn: Preemergence
# Outline: as §1
# [6] = test system: crabgrass, large (large crabgrass, Digitaria sanguinalis); assay: Test A pre-/postemergence: crabgrass, large; settings: for Crabgrass, Large plant response rating: Postemergence; for Plant response rating, Crabgrass, Large: Preemergence
# Outline: as §1
# [7] = test system: pigweed (Amaranthus retroflexus); assay: Test A pre-/postemergence: pigweed; settings: for Pigweed plant response rating: Postemergence; for Plant response rating, Pigweed: Preemergence
# Outline: as §1
# [8] = test system: barnyardgrass (Echinochloa crus-galli); assay: Test C flooded paddy test: barnyardgrass; settings: scale 0 to 100 (0 no effect, 100 complete control)
# Outline: as §2
# [9] = test system: ducksalad (Heteranthera limosa); assay: Test C flooded paddy test: ducksalad; settings: scale 0 to 100 (0 no effect, 100 complete control)
# Outline: as §2
# [10] = test system: sedge, umbrella (small-flower umbrella sedge, Cyperus difformis); assay: Test C flooded paddy test: sedge, umbrella; settings: scale 0 to 100 (0 no effect, 100 complete control)
# Outline: as §2
# [11] = 125 g ai/ha, 0 to 100 scale, 0 is no effect, 100 is complete control
# [12] = 500 g ai/ha, visual rating on 0 to 100 scale (0 no effect, 100 complete control), approximately ten days
# [13] = 125 g ai/ha, 0 to 100 scale (0 no effect, 100 complete control)
# [14] = 500 g ai/ha, 0 to 100 scale, 0 is no effect, 100 is complete control
# [15] = Flood (flooded paddy test), 62 g ai/ha, visual rating after 13 to 15 days
# [16] = Flood (flooded paddy test), 250 g ai/ha, visual rating after 13 to 15 days
# [17] = Flood (flooded paddy test), 125 g ai/ha, visual rating after 13 to 15 days
structure (smiles),measurement,setting,value
Cc1nn(-c2ccc(C(F)(F)F)cc2)nc1Oc1cncc(C(F)(F)F)c1 [Compound 37],Velvetleaf plant response rating,[1]; [11],20
same,Velvetleaf plant response rating,[1]; [12],50
same,"Plant response rating, Velvetleaf",[1]; [13],0
same,"Plant response rating, Velvetleaf",[1]; [14],10
same,Wheat plant response rating,[2]; [11],0
same,Wheat plant response rating,[2]; [12],10
same,"Plant response rating, Wheat",[2]; [13],0
same,"Plant response rating, Wheat",[2]; [14],0
same,"Plant response rating, Rice",rice (Oryza sativa); [15],10
same,"Plant response rating, Rice",rice (Oryza sativa); [16],20
same,Barnyardgrass plant response rating,[3]; [11],10
same,Barnyardgrass plant response rating,[3]; [12],20
same,"Plant response rating, Barnyardgrass",[3]; [13],30
same,"Plant response rating, Barnyardgrass",[3]; [14],90
same,"Foxtail, Giant plant response rating",[4]; [11],30
same,"Foxtail, Giant plant response rating",[4]; [12],80
same,"Plant response rating, Foxtail, Giant",[4]; [13],90
same,"Plant response rating, Foxtail, Giant",[4]; [14],100
same,Morningglory plant response rating,[5]; [11],20
same,Morningglory plant response rating,[5]; [12],90
same,"Plant response rating, Morningglory",[5]; [13],0
same,"Plant response rating, Morningglory",[5]; [14],20
same,Corn plant response rating,corn (Zea mays); [11],10
same,Corn plant response rating,corn (Zea mays); [12],20
same,"Plant response rating, Corn",corn (Zea mays); [13],0
same,"Crabgrass, Large plant response rating",[6]; [11],20
same,"Crabgrass, Large plant response rating",[6]; [12],70
same,"Plant response rating, Crabgrass, Large",[6]; [13],90
same,"Plant response rating, Crabgrass, Large",[6]; [14],100
same,Pigweed plant response rating,[7]; [11],80
same,Pigweed plant response rating,[7]; [12],100
same,"Plant response rating, Pigweed",[7]; [13],70
same,"Plant response rating, Pigweed",[7]; [14],100
same,"Plant response rating, Barnyardgrass",[8]; [15],10
same,"Plant response rating, Barnyardgrass",[8]; [16],35
same,"Plant response rating, Ducksalad",[9]; [15],0
same,"Plant response rating, Ducksalad",[9]; [16],70
same,"Plant response rating, Sedge, Umbrella",[10]; [15],0
same,"Plant response rating, Sedge, Umbrella",[10]; [16],0
Cc1nn(-c2ccc(C(F)(F)F)cc2)nc1Oc1ccnc(OC(F)F)c1 [Compound 48],Velvetleaf plant response rating,[1]; [11],30
same,Velvetleaf plant response rating,[1]; [12],50
same,"Plant response rating, Velvetleaf",[1]; [13],0
same,"Plant response rating, Velvetleaf",[1]; [14],0
same,Wheat plant response rating,[2]; [11],10
same,Wheat plant response rating,[2]; [12],20
same,"Plant response rating, Wheat",[2]; [13],0
same,"Plant response rating, Wheat",[2]; [14],0
same,"Plant response rating, Rice",rice (Oryza sativa); [15],10
same,"Plant response rating, Rice",rice (Oryza sativa); [16],20
same,Barnyardgrass plant response rating,[3]; [11],10
same,Barnyardgrass plant response rating,[3]; [12],30
same,"Plant response rating, Barnyardgrass",[3]; [13],0
same,"Plant response rating, Barnyardgrass",[3]; [14],30
same,"Foxtail, Giant plant response rating",[4]; [11],30
same,"Foxtail, Giant plant response rating",[4]; [12],70
same,"Plant response rating, Foxtail, Giant",[4]; [13],40
same,"Plant response rating, Foxtail, Giant",[4]; [14],100
same,Morningglory plant response rating,[5]; [11],10
same,Morningglory plant response rating,[5]; [12],90
same,"Plant response rating, Morningglory",[5]; [13],0
same,"Plant response rating, Morningglory",[5]; [14],20
same,Corn plant response rating,corn (Zea mays); [11],10
same,Corn plant response rating,corn (Zea mays); [12],30
same,"Plant response rating, Corn",corn (Zea mays); [13],0
same,"Plant response rating, Corn",corn (Zea mays); [14],0
same,"Crabgrass, Large plant response rating",[6]; [11],50
same,"Crabgrass, Large plant response rating",[6]; [12],90
same,"Plant response rating, Crabgrass, Large",[6]; [13],30
same,"Plant response rating, Crabgrass, Large",[6]; [14],100
same,Pigweed plant response rating,[7]; [11],100
same,Pigweed plant response rating,[7]; [12],100
same,"Plant response rating, Pigweed",[7]; [13],40
same,"Plant response rating, Pigweed",[7]; [14],90
same,"Plant response rating, Barnyardgrass",[8]; [15],10
same,"Plant response rating, Barnyardgrass",[8]; [16],30
same,"Plant response rating, Ducksalad",[9]; [15],20
same,"Plant response rating, Ducksalad",[9]; [16],65
same,"Plant response rating, Sedge, Umbrella",[10]; [15],0
same,"Plant response rating, Sedge, Umbrella",[10]; [16],45
Cc1nn(-c2ccnc(C(F)(F)F)c2)nc1C(=O)c1cccc(C(F)(F)F)c1 [Compound 49],Velvetleaf plant response rating,[1]; [11],30
same,Velvetleaf plant response rating,[1]; [12],60
same,"Plant response rating, Velvetleaf",[1]; [13],0
same,"Plant response rating, Velvetleaf",[1]; [14],10
same,Wheat plant response rating,[2]; [11],10
same,Wheat plant response rating,[2]; [12],20
same,"Plant response rating, Wheat",[2]; [13],10
same,"Plant response rating, Wheat",[2]; [14],20
same,"Plant response rating, Rice",rice (Oryza sativa); [15],0
same,"Plant response rating, Rice",rice (Oryza sativa); [17],0
same,"Plant response rating, Rice",rice (Oryza sativa); [16],0
same,"Plant response rating, Rice","rice (Oryza sativa); Flood, 31 g ai/ha",0
same,Barnyardgrass plant response rating,[3]; [11],10
same,Barnyardgrass plant response rating,[3]; [12],20
same,"Plant response rating, Barnyardgrass",[3]; [13],10
same,"Plant response rating, Barnyardgrass",[3]; [14],30
same,"Foxtail, Giant plant response rating",[4]; [11],30
same,"Foxtail, Giant plant response rating",[4]; [12],60
same,"Plant response rating, Foxtail, Giant",[4]; [13],80
same,"Plant response rating, Foxtail, Giant",[4]; [14],100
same,Morningglory plant response rating,[5]; [11],20
same,Morningglory plant response rating,[5]; [12],50
same,"Plant response rating, Morningglory",[5]; [13],0
same,"Plant response rating, Morningglory",[5]; [14],10
same,Corn plant response rating,corn (Zea mays); [11],10
same,Corn plant response rating,corn (Zea mays); [12],20
same,"Plant response rating, Corn",corn (Zea mays); [13],0
same,"Plant response rating, Corn",corn (Zea mays); [14],10
same,"Crabgrass, Large plant response rating",[6]; [11],60
same,"Crabgrass, Large plant response rating",[6]; [12],90
same,"Plant response rating, Crabgrass, Large",[6]; [13],80
same,"Plant response rating, Crabgrass, Large",[6]; [14],100
same,Pigweed plant response rating,[7]; [11],80
same,Pigweed plant response rating,[7]; [12],100
same,"Plant response rating, Pigweed",[7]; [13],60
same,"Plant response rating, Pigweed",[7]; [14],100
same,"Plant response rating, Barnyardgrass",[8]; [15],0
same,"Plant response rating, Barnyardgrass",[8]; [17],10
same,"Plant response rating, Barnyardgrass",[8]; [16],15
same,"Plant response rating, Barnyardgrass","[8]; Flood, 31 g ai/ha",0
same,"Plant response rating, Ducksalad",[9]; [15],0
same,"Plant response rating, Ducksalad",[9]; [17],30
same,"Plant response rating, Ducksalad",[9]; [16],40
same,"Plant response rating, Ducksalad","[9]; Flood, 31 g ai/ha",0
same,"Plant response rating, Sedge, Umbrella",[10]; [15],0
same,"Plant response rating, Sedge, Umbrella",[10]; [17],70
same,"Plant response rating, Sedge, Umbrella",[10]; [16],75
same,"Plant response rating, Sedge, Umbrella","[10]; Flood, 31 g ai/ha",0
Cc1nn(-c2nc(Cl)ns2)nc1C(=O)c1cccc(C(F)(F)F)c1 [Compound 59],Velvetleaf plant response rating,[1]; [11],0
same,Velvetleaf plant response rating,[1]; [12],0
same,"Plant response rating, Velvetleaf",[1]; [13],0
same,"Plant response rating, Velvetleaf",[1]; [14],0
same,Wheat plant response rating,[2]; [11],0
same,Wheat plant response rating,[2]; [12],0
same,"Plant response rating, Wheat",[2]; [13],0
same,"Plant response rating, Wheat",[2]; [14],0
same,"Plant response rating, Rice",rice (Oryza sativa); [15],0
same,"Plant response rating, Rice",rice (Oryza sativa); [17],0
same,"Plant response rating, Rice",rice (Oryza sativa); [16],0
same,"Plant response rating, Rice","rice (Oryza sativa); Flood, 31 g ai/ha",0
same,Barnyardgrass plant response rating,[3]; [11],0
same,Barnyardgrass plant response rating,[3]; [12],0
same,"Plant response rating, Barnyardgrass",[3]; [13],0
same,"Plant response rating, Barnyardgrass",[3]; [14],0
same,"Foxtail, Giant plant response rating",[4]; [11],0
same,"Foxtail, Giant plant response rating",[4]; [12],0
same,"Plant response rating, Foxtail, Giant",[4]; [13],0
same,"Plant response rating, Foxtail, Giant",[4]; [14],0
same,Morningglory plant response rating,[5]; [11],0
same,Morningglory plant response rating,[5]; [12],0
same,"Plant response rating, Morningglory",[5]; [13],0
same,"Plant response rating, Morningglory",[5]; [14],0
same,Corn plant response rating,corn (Zea mays); [11],0
same,Corn plant response rating,corn (Zea mays); [12],0
same,"Plant response rating, Corn",corn (Zea mays); [13],0
same,"Plant response rating, Corn",corn (Zea mays); [14],0
same,"Crabgrass, Large plant response rating",[6]; [11],0
same,"Crabgrass, Large plant response rating",[6]; [12],0
same,"Plant response rating, Crabgrass, Large",[6]; [13],0
same,"Plant response rating, Crabgrass, Large",[6]; [14],0
same,Pigweed plant response rating,[7]; [11],0
same,Pigweed plant response rating,[7]; [12],0
same,"Plant response rating, Pigweed",[7]; [13],0
same,"Plant response rating, Pigweed",[7]; [14],0
same,"Plant response rating, Barnyardgrass",[8]; [15],0
same,"Plant response rating, Barnyardgrass",[8]; [17],0
same,"Plant response rating, Barnyardgrass",[8]; [16],0
same,"Plant response rating, Barnyardgrass","[8]; Flood, 31 g ai/ha",0
same,"Plant response rating, Ducksalad",[9]; [15],0
same,"Plant response rating, Ducksalad",[9]; [17],0
same,"Plant response rating, Ducksalad",[9]; [16],0
same,"Plant response rating, Ducksalad","[9]; Flood, 31 g ai/ha",0
same,"Plant response rating, Sedge, Umbrella",[10]; [15],0
same,"Plant response rating, Sedge, Umbrella",[10]; [17],0
same,"Plant response rating, Sedge, Umbrella",[10]; [16],0
same,"Plant response rating, Sedge, Umbrella","[10]; Flood, 31 g ai/ha",0
